Experimental data reported in PubChem BioAssay (NCI).
Where “and” joins values, the source holds several entries; their conditions need not be identical. Equal entries are not always repeated.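 Five concentrations, 48 hours, 96-well plates. GI50 is the concentration that inhibits growth by half. The concentration for full growth arrest is given as TGI.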

Key:
Assay in all cases: growth of human tumour cells (NCI), 48 h
HCT-116 colon = system: HCT-116 colon
HOP-92 NSCLC = system: HOP-92 NSCLC
UACC-62 melanoma = system: UACC-62 melanoma
OVCAR-8 ovarian = system: OVCAR-8 ovarian
K-562 leukemia = system: K-562 leukemia
MOLT-4 leukemia = system: MOLT-4 leukemia
MDA-MB-231 breast = system: MDA-MB-231 breast
OVCAR-4 ovarian = system: OVCAR-4 ovarian
OVCAR-3 ovarian = system: OVCAR-3 ovarian
OVCAR-5 ovarian = system: OVCAR-5 ovarian
IGROV1 ovarian = system: IGROV1 ovarian
PC-3 prostate = system: PC-3 prostate
HCC-2998 colon = system: HCC-2998 colon
RXF 393 renal = system: RXF 393 renal
EKVX NSCLC = system: EKVX NSCLC
RPMI-8226 leukemia = system: RPMI-8226 leukemia
CCRF-CEM leukemia = system: CCRF-CEM leukemia
NCI-H522 lung = system: NCI-H522 lung
HCT-15 colon = system: HCT-15 colon
ACHN renal = system: ACHN renal
SF-268 CNS = system: SF-268 CNS
KM12 colon = system: KM12 colon
LOX IMVI melanoma = system: LOX IMVI melanoma
HT29 colon = system: HT29 colon
NCI-H23 lung = system: NCI-H23 lung
NCI/ADR-RES ovarian = system: NCI/ADR-RES ovarian
M14 melanoma = system: M14 melanoma
CAKI-1 renal = system: CAKI-1 renal
DU-145 prostate = system: DU-145 prostate
NCI-H226 lung = system: NCI-H226 lung
HL-60(TB) leukemia = system: HL-60(TB) leukemia
MDA-MB-435 = system: MDA-MB-435
SF-539 CNS = system: SF-539 CNS
HS 578T breast = system: HS 578T breast
TK-10 renal = system: TK-10 renal
786-0 renal = system: 786-0 renal
SN12C renal = system: SN12C renal
MCF7 breast = system: MCF7 breast
UO-31 renal = system: UO-31 renal
UACC-257 melanoma = system: UACC-257 melanoma
SF-295 CNS = system: SF-295 CNS
SR leukemia = system: SR leukemia
SW-620 colon = system: SW-620 colon
SNB-75 CNS = system: SNB-75 CNS
U251 CNS = system: U251 CNS
SK-MEL-5 melanoma = system: SK-MEL-5 melanoma
BT-549 breast = system: BT-549 breast
NCI-H460 lung = system: NCI-H460 lung
COLO 205 colon = system: COLO 205 colon
SNB-19 CNS = system: SNB-19 CNS
T-47D breast = system: T-47D breast
MDA-N = system: MDA-N
A498 renal = system: A498 renal
HOP-62 NSCLC = system: HOP-62 NSCLC
SK-MEL-2 melanoma = system: SK-MEL-2 melanoma
A549 NSCLC = system: A549 NSCLC
MALME-3M melanoma = system: MALME-3M melanoma
SK-MEL-28 melanoma = system: SK-MEL-28 melanoma
SK-OV-3 ovarian = system: SK-OV-3 ovarian

`O=C(O)CN1CCN(CC(=O)O)CCN(CC(=O)O)CCN(CC(=O)O)CC1` was tested, and the TGI (HCT-116 colon) was greater than 100 µM, the TGI (HOP-92 NSCLC) was greater than 100 µM and the TGI (UACC-62 melanoma) was greater than 100 µM. For the same compound, the TGI (OVCAR-8 ovarian) was greater than 100 µM, the TGI (K-562 leukemia) was greater than 100 µM and the TGI (MOLT-4 leukemia) was greater than 100 µM. It also gave a TGI (MDA-MB-231 breast) greater than 100 µM, a TGI (OVCAR-4 ovarian) greater than 100 µM and a TGI (OVCAR-3 ovarian) greater than 100 µM. For the same compound, the TGI (OVCAR-5 ovarian) was greater than 100 µM, the TGI (IGROV1 ovarian) was greater than 100 µM and the TGI (PC-3 prostate) was greater than 100 µM. The TGI (HCC-2998 colon) was greater than 100 µM, the TGI (RXF 393 renal) was greater than 100 µM and the TGI (EKVX NSCLC) was greater than 100 µM. It also gave a TGI (RPMI-8226 leukemia) greater than 100 µM, a TGI (CCRF-CEM leukemia) greater than 100 µM and a TGI (NCI-H522 lung) greater than 100 µM. The TGI (HCT-15 colon) was greater than 100 µM, the TGI (ACHN renal) was greater than 100 µM and the TGI (SF-268 CNS) was greater than 100 µM. The TGI (KM12 colon) was greater than 100 µM, the TGI (LOX IMVI melanoma) was greater than 100 µM and the TGI (HT29 colon) was greater than 100 µM. The TGI (NCI-H23 lung) was greater than 100 µM, the TGI (NCI/ADR-RES ovarian) was greater than 100 µM and the TGI (M14 melanoma) was greater than 100 µM. The TGI (CAKI-1 renal) was greater than 100 µM, the TGI (DU-145 prostate) was greater than 100 µM and the TGI (NCI-H226 lung) was greater than 100 µM. For the same compound, the TGI (HL-60(TB) leukemia) was greater than 100 µM, the TGI (MDA-MB-435) was greater than 100 µM and the TGI (SF-539 CNS) was greater than 100 µM. It also gave a TGI (HS 578T breast) greater than 100 µM, a TGI (TK-10 renal) greater than 100 µM and a TGI (786-0 renal) greater than 100 µM. For the same compound, the TGI (SN12C renal) was greater than 100 µM, the TGI (MCF7 breast) was greater than 100 µM and the TGI (UO-31 renal) was greater than 100 µM. The TGI (UACC-257 melanoma) was greater than 100 µM, the TGI (SF-295 CNS) was greater than 100 µM and the TGI (SR leukemia) was greater than 100 µM. The TGI (SW-620 colon) was greater than 100 µM, the TGI (SNB-75 CNS) was greater than 100 µM and the TGI (U251 CNS) was greater than 100 µM. It also gave a TGI (SK-MEL-5 melanoma) greater than 100 µM, a TGI (BT-549 breast) greater than 100 µM and a TGI (NCI-H460 lung) greater than 100 µM. It also gave a TGI (COLO 205 colon) greater than 100 µM, a TGI (SNB-19 CNS) greater than 100 µM and a TGI (T-47D breast) greater than 100 µM. It also gave a TGI (MDA-N) greater than 100 µM, a TGI (A498 renal) greater than 100 µM and a TGI (HOP-62 NSCLC) greater than 100 µM. It also gave a TGI (SK-MEL-2 melanoma) greater than 100 µM and a TGI (A549 NSCLC) greater than 100 µM.
With `Cn1c2nc3ccccc3c-2cc2ccccc21` the GI50 (HCT-116 colon) was 1.8 µM and 4.57 µM, the TGI (HCT-116 colon) was greater than 100 µM and the GI50 (HOP-92 NSCLC) was 3.06 µM and 11.7 µM. The TGI (HOP-92 NSCLC) was 30.7 µM and 46.7 µM, the GI50 (MALME-3M melanoma) was 2.86 µM and 18.5 µM and the TGI (MALME-3M melanoma) was 12.8 µM and > 100 µM. For the same compound, the GI50 (UACC-62 melanoma) was 3.05 µM and 8.55 µM, the TGI (UACC-62 melanoma) was 8.85 µM and 20.8 µM and the GI50 (OVCAR-8 ovarian) was 2.48 µM and 7.18 µM. The TGI (OVCAR-8 ovarian) was 13.6 µM and > 100 µM, the TGI (K-562 leukemia) was > 100 µM and 39.7 µM and the GI50 (MOLT-4 leukemia) was 1.38 µM and 2.97 µM. The TGI (MOLT-4 leukemia) was 7.15 µM and 9.9 µM, the GI50 (MDA-MB-231 breast) was 5.58 µM and 11.6 µM and the TGI (MDA-MB-231 breast) was > 60.7 µM and 33.1 µM. The GI50 (OVCAR-4 ovarian) was 3.81 µM and 10.7 µM, the TGI (OVCAR-4 ovarian) was 19 µM and 26.2 µM and the TGI (OVCAR-3 ovarian) was > 46.2 µM and 28 µM. For the same compound, the GI50 (OVCAR-5 ovarian) was 4.12 µM and 11.4 µM, the TGI (OVCAR-5 ovarian) was 36.9 µM and 40.9 µM and the TGI (IGROV1 ovarian) was 25.5 µM and > 100 µM. For the same compound, the TGI (PC-3 prostate) was > 45.9 µM and 23.6 µM, the TGI (HCC-2998 colon) was 17.6 µM and the GI50 (RXF 393 renal) was 3.45 µM and 7.68 µM. The TGI (RXF 393 renal) was 14.8 µM and 20.1 µM, the TGI (EKVX NSCLC) was 15.6 µM and 33.9 µM and the GI50 (RPMI-8226 leukemia) was 2.45 µM and 7.55 µM. For the same compound, the TGI (RPMI-8226 leukemia) was 10.2 µM and 39 µM, the TGI (CCRF-CEM leukemia) was > 43.5 µM and 25 µM and the GI50 (NCI-H522 lung) was 2.07 µM and 6.03 µM. For the same compound, the TGI (NCI-H522 lung) was 10.3 µM and 23.7 µM, the GI50 (HCT-15 colon) was 1.14 µM and 4.06 µM and the TGI (HCT-15 colon) was 7.3 µM and 23.4 µM. For the same compound, the GI50 (ACHN renal) was 2.06 µM and 4.8 µM, the TGI (ACHN renal) was 15.2 µM and > 100 µM and the GI50 (SF-268 CNS) was 3.95 µM and 8.47 µM. The TGI (SF-268 CNS) was 17 µM and 40.3 µM, the GI50 (KM12 colon) was 2.19 µM and 6.02 µM and the TGI (KM12 colon) was 11 µM and 46.4 µM. For the same compound, the TGI (LOX IMVI melanoma) was > 31.8 µM and 22.5 µM, the TGI (HT29 colon) was 18.3 µM and 31.4 µM and the GI50 (NCI-H23 lung) was 3.35 µM and 10.6 µM. For the same compound, the TGI (NCI-H23 lung) was 11.5 µM and 23.2 µM, the GI50 (NCI/ADR-RES ovarian) was 2.76 µM and 12.1 µM and the TGI (NCI/ADR-RES ovarian) was 20.2 µM and > 100 µM. The GI50 (M14 melanoma) was 4.29 µM and 11.2 µM, the TGI (M14 melanoma) was > 42.2 µM and 23.6 µM and the GI50 (CAKI-1 renal) was 2.6 µM and 5.52 µM. The TGI (CAKI-1 renal) was 8.7 µM and 37.1 µM, the TGI (DU-145 prostate) was greater than 100 µM and the GI50 (NCI-H226 lung) was 3.46 µM and 11.2 µM. The TGI (NCI-H226 lung) was 19.3 µM and 31.5 µM, the TGI (HL-60(TB) leukemia) was 8.22 µM and 17 µM and the TGI (MDA-MB-435) was > 46.4 µM and 19 µM. For the same compound, the TGI (SF-539 CNS) was 16 µM and 17.5 µM, the GI50 (HS 578T breast) was 4.54 µM and 17.7 µM and the TGI (HS 578T breast) was 16.4 µM and 61.3 µM. The GI50 (TK-10 renal) was 7.63 µM and 31 µM, the TGI (TK-10 renal) was 70.3 µM and > 100 µM and the TGI (786-0 renal) was greater than 100 µM. For the same compound, the GI50 (SN12C renal) was 3.14 µM and 6.46 µM, the TGI (SN12C renal) was 36.3 µM and 34.9 µM and the TGI (MCF7 breast) was > 34.8 µM and 36.9 µM. The GI50 (UO-31 renal) was 2.6 µM and 5.47 µM, the TGI (UO-31 renal) was 11.6 µM and 37.7 µM and the GI50 (UACC-257 melanoma) was 3.91 µM and 8.6 µM. For the same compound, the TGI (UACC-257 melanoma) was 35.5 µM and 44 µM, the TGI (SF-295 CNS) was > 40.5 µM and 20.8 µM and the TGI (SR leukemia) was 7.25 µM and 10.7 µM. The TGI (SW-620 colon) was > 48.7 µM and 39 µM, the GI50 (SNB-75 CNS) was 3.22 µM and 13.4 µM and the TGI (SNB-75 CNS) was 12.7 µM and 39.1 µM. For the same compound, the GI50 (U251 CNS) was 4.17 µM and 8.75 µM, the TGI (U251 CNS) was > 53.5 µM and 32.4 µM and the GI50 (SK-MEL-5 melanoma) was 4 µM and 8.37 µM. For the same compound, the TGI (SK-MEL-5 melanoma) was 16.8 µM and 24 µM, the TGI (BT-549 breast) was 9.09 µM and the TGI (NCI-H460 lung) was 11.9 µM and 12.9 µM. For the same compound, the TGI (COLO 205 colon) was > 35.9 µM and 17.2 µM, the GI50 (SNB-19 CNS) was 5.94 µM and 14.7 µM and the TGI (SNB-19 CNS) was greater than 100 µM. For the same compound, the TGI (T-47D breast) was greater than 100 µM, the GI50 (MDA-N) was 4.27 µM and 10.4 µM and the TGI (MDA-N) was 30.1 µM and 23.1 µM. The GI50 (SK-MEL-28 melanoma) was 4.87 µM and 10.8 µM, the TGI (SK-MEL-28 melanoma) was > 43.2 µM and 23.1 µM and the GI50 (A498 renal) was 5.12 µM and 18.4 µM. The TGI (A498 renal) was 17.1 µM and 43.5 µM, the TGI (SK-OV-3 ovarian) was greater than 100 µM and the GI50 (SK-MEL-2 melanoma) was 3.94 µM and 11.1 µM. For the same compound, the TGI (SK-MEL-2 melanoma) was 17.2 µM and 24 µM, the GI50 (A549 NSCLC) was 3.38 µM and 7.11 µM and the TGI (A549 NSCLC) was 33.2 µM and 88.7 µM.
